In patent US20030096264A1, “Multi-parameter high throughput screening assays (MPHTS)” (Psychiatric Genomics, Inc., priority 2001, published 2003):

Columns and labels:
[1] = system: human neuroblastoma cell line NBFL; test: Microarray expression profile of NBFL cells incubated with valproate; type: cell-based; conditions: 0.5 mM valproate, 24 h
Method: The additional signature genes described here were identified using a human neuroblastoma cell line that is known in the art as NBFL (see, Symes et al., Proc. Natl. Acad. Sci. U.S.A. 1993, 90(2):572-576). NBFL cell cultures were maintained in DMEM medium supplemented with L-glutmine, antibiotics, 10% fetal bovine serum and 5% horse serum. Before treatment, cells were passaged, allowed to adhere overnight, and the medium was replaced with serum free medium for 24 hours. The cells were then incubated for 24 hours in either the presence or absence of valproate (0.5 mM), and in the absence of serum. mRNA was extracted from each group of cultures and sent to a commercial company for expression profiling by hybridization to microarrays. Data from at least three independent microarray experiments was then statistically evaluated to identify genes that are differentially expressed in the presence of valproate, relative to expression levels in the absence of valproate.
Table 3, below, list each of the genes whose expression level changed in cells exposed to valproate, identified using a UniGem V2 array from Incyte (Palo Alto, Calif.) and also provides the expression ratio ((), defined in Example 1, supra) measured for each gene. Each gene is identified in Table 3 by its common name, as well as by the GenBank Accession and Gene Identification (GI) numbers for its nucleotide sequence. A cDNA sequence for each gene listed in Table 3 is also provided in the accompanying Sequence Listing, and its sequence identifier is specified in Table 3 along with the GenBank Accession number. Table 3 also indicates the Unigene cluster number for each gene from a recent build of the NCBI Unigene database.

NBFL cell line = test: RT-PCR validation of differential expression in NBFL cells treated with valproate; type: cell-based, human; conditions: valproate treated vs untreated, normalized to GAPDH
Method: To validate differential expression measurements that were obtained using microarrays, expression levels were also measured using a reverse transcription polymerase chain reaction (RT-PCR) assay for five genes having the highest expression ratio in Table 3: nidogen (SEQ ID NO:25; σ=1.7), silver (SEQ ID NO:26; σ=1.6), dopamine β-hydroxylase (SEQ ID NO:53; σ=-1.7), dopa decarboxylase (SEQ ID NO:54; σ=−2) and chromogranin B (SEQ ID NO:55; σ=−2.1). These RT-PCR experiments were performed according to routine methods that are known in 10 the art. Briefly, RNA from the NBFL cell line treated with or without valproate was primed with oligo-dT and reverse transcribed. The resultant cDNA was subjected to either 25 or 30 rounds of PCR amplification, depending on the absolute expression level of the gene tested. The amount of PCR product generated from each sample was normalized to the amount of GAPDH amplified from each sample and a fold-change relative to valproate treatment was calculated. β-actin was used as an additional control.
The results from these experiments are shown graphically in FIG. 3. As expected, no change in β-actin (B-ACT) expression was detected (+/− one-fold) when cells were treated with valproate. However, a greater than 2-fold change in expression levels was measured for each of the five other genes tested: nidogoen (NID), silver (SIL), dopamine β-hydroxylase (DBH), dopa decarboxylase (DDC) and chromogranin B (CG-B).

CCCC(CCC)C(=O)O [valproate]
expression ratio Φ: nidogen (NID) ([1]; serum free, SEQ ID NO: 25): 1.7 | expression ratio Φ: silver (SIL) ([1]; SEQ ID NO: 26): 1.6 | expression ratio Φ: Homo sapiens clone 23798 and 23825 ([1]; SEQ ID NO: 27): 1.5 | expression ratio Φ: LIM protein ([1]; SEQ ID NO: 28): 1.4 | expression ratio Φ: carnitine palmitoyltransferase II ([1]; SEQ ID NO: 29): 1.4 | expression ratio Φ: iduronate-2-sulfatase ([1]; SEQ ID NO: 30): 1.4 | expression ratio Φ: dynamin 1 ([1]; SEQ ID NO: 31): 1.4 | expression ratio Φ: myosin IB ([1]; SEQ ID NO: 32): 1.4 | expression ratio Φ: EGF-like-domain ([1]; SEQ ID NO: 33): 1.4 | expression ratio Φ: islet cell autoantigen 1 ([1]; SEQ ID NO: 34): −1.4 | expression ratio Φ: regulator of G-protein signaling 5 ([1]; SEQ ID NO: 35): −1.4 | expression ratio Φ: XPA binding protein 1 ([1]; SEQ ID NO: 36): −1.4 | expression ratio Φ: P311 protein ([1]; SEQ ID NO: 37): −1.4 | expression ratio Φ: SWI/SNF ([1]; SEQ ID NO: 38): −1.4 | expression ratio Φ: ALL1 ([1]; SEQ ID NO: 39): −1.4 | expression ratio Φ: RNA binding motif ([1]; SEQ ID NO: 40): −1.4 | expression ratio Φ: SMAD1 ([1]; SEQ ID NO: 41): −1.4 | expression ratio Φ: NADH dehydrogenase (ubiquinone) ([1]; SEQ ID NO: 42): −1.4 | expression ratio Φ: calmodulin 2 ([1]; SEQ ID NO: 43): −1.4 | expression ratio Φ: vimentin ([1]; SEQ ID NO: 44): −1.4 | expression ratio Φ: GRB2-associated binding protein 1 ([1]; SEQ ID NO: 45): −1.5 | expression ratio Φ: splicing factor 3b (subunit 3) ([1]; SEQ ID NO: 46): −1.5 | expression ratio Φ: DKFZp547DO26_r1 (EST) ([1]; SEQ ID NO: 47): −1.5 | expression ratio Φ: insulinoma-associated 1 (INSM1) ([1]; SEQ ID NO: 48): −1.6 | expression ratio Φ: neuroendocrine secretory protein 55 ([1]; SEQ ID NO: 49): −1.6 | expression ratio Φ: v-yes-1 ([1]; SEQ ID NO: 50): −1.6 | expression ratio Φ: chromodomain helicase DNA binding ([1]; SEQ ID NO: 51): −1.6 | expression ratio Φ: cholinergic receptor ([1]; SEQ ID NO: 52): −1.7 | expression ratio Φ: dopmine β-hydroxylase (DBH) ([1]; SEQ ID NO: 53): -1.7 | expression ratio Φ: dopa decarboxylase (DDC) ([1]; SEQ ID NO: 54): −2 | expression ratio Φ: chromogranin B (CG-B) ([1]; SEQ ID NO: 55): −2.1 | change in expression level by RT-PCR: chromogranin B (CG-B) (NBFL cell line): greater than 2 fold | change in expression level by RT-PCR: dopa decarboxylase (DDC) (NBFL cell line): greater than 2 fold | change in expression level by RT-PCR: dopamine β-hydroxylase (DBH) (NBFL cell line): greater than 2 fold | change in expression level by RT-PCR: nidogoen (NID) (NBFL cell line): greater than 2 fold | change in expression level by RT-PCR: silver (SIL) (NBFL cell line): greater than 2 fold
